Results reported in patent US20150328221A1, “COMPOUNDS FOR PROTECTION OF PHOTORECEPTOR CELLS AND FOR ENHANCING VISUAL FUNCTION UNDER LOW LIGHT CONDITIONS” (Allergan, Inc., priority 2014, published 2015).
Entries after “also recorded” stand apart in the source; their conditions may differ.

Assays:
5-HT1A receptor = target: T1, 5-HT1A receptor (Homo sapiens, UniProt P08908); details: description of the compound; cited from earlier work
T1 sequence (P08908 1-422): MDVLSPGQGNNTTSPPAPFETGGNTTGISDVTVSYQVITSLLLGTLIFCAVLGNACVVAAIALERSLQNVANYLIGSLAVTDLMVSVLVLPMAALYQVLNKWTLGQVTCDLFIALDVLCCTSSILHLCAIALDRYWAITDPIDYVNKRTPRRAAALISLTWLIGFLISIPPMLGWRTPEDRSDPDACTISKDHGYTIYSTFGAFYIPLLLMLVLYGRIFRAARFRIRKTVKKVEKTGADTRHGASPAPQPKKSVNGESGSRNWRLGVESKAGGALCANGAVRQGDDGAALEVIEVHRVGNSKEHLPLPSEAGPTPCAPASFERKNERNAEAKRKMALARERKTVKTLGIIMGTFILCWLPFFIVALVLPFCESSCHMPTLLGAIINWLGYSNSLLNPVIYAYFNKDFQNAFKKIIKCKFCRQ

[1] = system: rod photoreceptors / outer nuclear layer; assay: Histological analysis (H&E) of retinal architecture after blue light-induced injury; format: in vivo, rat; details: for retinal lesion (loss of photoreceptors) measured in the vertical meridian of the eye: blue light injury, maximal damage 1.5 mm superior to the optic nerve head; for protection of structural integrity of the outer nuclear layer: doses greater of 1 mg/kg, blue-light induced damage model in rodent; for outer nuclear cell count and retinal structure (H&E stained retinas): post-blue light, drug-treated vs naive and vehicle-treated retinae
Experimental: Protection of retinal architecture measured as the total count of photoreceptors (FIG. 4B) or the size of the lesion (FIG. 4C) in the section taken through the vertical meridian of the eye. (FIG. 4D) H&E stained sections of from the median respondent, naïve and vehicle- or drug-treated animals illustrate the level protection achieved by treatment with 1 mg/kg zalospirone.
On Day 7 post BL-exposure, animals were anesthetized with Euthasol and decapitated. Following decapitation, bilateral globes were enucleated and marked at the 12:00 position with black tissue ink. Both eyes from each animal were incubated in 5 mL of Davidson's fixative special overnight at RT. After ˜24 hours, both eyes were dehydrated in 50% ethanol (EtOH) for 1 hour at RT followed by storage in 70% EtOH at RT until paraffin processing. Eyes were then shipped to Premier Lab (Longmont, Colo.) for paraffin processing and embedding. Five micrometer thick paraffin sections were cut through the optic nerve head and mounted on glass.
For each eye, three H&E-stained slides were generated. Slides containing H&E-stained cross sections were imaged using the Nanozoomer whole slide scanner employing a 40× objective under bright field optics.
(§1) Protection of rod photoreceptors by zalospirone from light induced injury is exemplified in FIG. 4 and by eptapirone in FIG. 5 below. Doses greater of 1 mg/kg provide 100% protection of structural integrity of the outer nuclear layer and 80% of retinal signaling in a blue-light induced damage model in rodent.

rod photoreceptors = assay: Scotopic flash ERG (a- and b-wave) after blue light-induced injury, model of dry AMD; format: in vivo, rat; details: for protection of retinal signaling: doses greater of 1 mg/kg, blue-light induced damage model in rodent; for protection of rod photoreceptors from blue light-induced injury: model of dry AMD
Excerpt: Seven days after exposure to 10,000 lux blue light, the amplitude of a- and b-wave components of the electroretinogram (ERG) is reduced to 20-30% of its pre-exposure amplitude (FIG. 4A). The ERG signals from median respondents in each group are shown in the inset in A. The tracing designated “α” illustrates the signal evoked in a naïve animal when stimulated with 20 candela-sec/m^2 white light. […] Full dose response showing the dose and corresponding retinal concentration of zalospirone is shown in the bar graph (FIG. 4A).
Seven days after exposure to 10,000 lux blue light, the amplitude of a- and b-wave components of the electroretinogram (ERG) is reduced to 20-30% of its pre-exposure amplitude (A). Full dose response showing the dose and corresponding retinal concentration of eptapirone is shown in the bar graph (A). The respective doses and corresponding retinal concentrations achieved following subcutaneous administration of eptapirone are shown on the abscissa. Data is plotted as the mean±SEM percentage of a- or b-wave measured prior to blue light-induced retinal degeneration. Protection of retinal architecture measured as the area of the outer nuclear layer (B) or the size of the lesion (C) in a section taken through the vertical meridian of the eye. H&E stained sections of from the median respondent, naïve and vehicle- or drug-treated animals illustrate the level protection achieved by treatment with 0.3 mg/kg eptapirone.
(§2) Bilateral flash ERG recordings on the dual dome Espion E^3 system (Diagnosys, LLC) were made prior to (baseline) and on the Day of zalospirone administration. Animals were anesthetized with a cocktail of 30 mg/mL Ketamine/0.2 mg/mL Dexmedetomidine (i.m.) to reach a final dose of 15 mg/kg Ketamine and 0.1 mg/kg Dexmedetomidine. Animals' eyes were given 1 drop each of 1% phenylephrine, 0.5% atropine and 1% proparacaine, sequentially. Noninvasive platinum wire loop electrodes moisturized with artificial tears (Goniovisc, Sigmapharmaceuticals, Inc.) were placed over the eyes, a reference electrode were placed in the bridge of the nose and a ground wire into the tail. Scotopic ERG measurements were made at 1e^−5 to 20 cd s/m^2. Photopic ERG measurements for S- and M-cone function were made at 8e^−4 to 40 cd s/m^2. The recording filter was set at 300 Hz.
as §1

scotopic b-wave = assay: Scotopic b-wave ERG with treatment after blue light-induced injury; format: in vivo, Sprague Dawley rat; details: single subcutaneous 3 mg/kg given after blue light injury (3.5 hour, 10,000 lux); stimulus 10^−5 candela-sec/m^2; N=8
Experimental: FIGS. 9A and 9B illustrate that treatment with zalospirone restores of the amplitude of the scotopic b-wave following light induced injury. FIG. 9A is a representative ERG recordings from a Sprague Dawley rat which was dark adapted overnight and exposed to white light stimulus (10^−5 candela-sec/m^2) are shown at baseline before injury, 7 days following exposure to a 3.5 hour exposure to 10,000 lux blue light and again at 3 days later following a single subcutaneous administration to 3 mg/kg zalospirone. […] The data are presented as mean±SEM, N=8.
as §2, with “The recording filter was set at 300 Hz.” left out

cone photoreceptors [2] = assay: Anti-opsin immunofluorescence in retinal cross sections after blue light-induced injury; format: in vivo, rat; details: pretreatment with 3 mg/kg
Excerpt: (§3) FIG. 6A to 6E illustrate that zalospirone protects cone photoreceptors from blue light-induced injury in a model of dry AMD. […] The amplitude of the medium-wave (blue- and green-light responsive) cone driven ERG signals were reduced by >90% while the short-wave (ultra violet and blue-light responsive) cone signals were virtually eliminated (A, B).
A subset of 5 μm thick paraffin sections cut through the vertical meridian (prepared by Premier Labs) was not stained with H&E, but instead was subjected to anti-opsin immunofluorescent staining to detect both SW and M/L cones. Briefly, sections were baked at 60° C. for 1 hr, deparaffinized in xylene, rehydrated in a decreasing series of alcohols, rinsed in PBS 3×, and blocked in PBS containing 0.1% Tween 20, 0.1% Triton×100, and 5% normal donkey serum for 2 hr at RT. Slides were reacted 0/N at 4° C. with a combined mixture of anti-SW (SCBT; SC-14363) and -M/L (Millipore, Ab5405) opsin antibodies diluted to 1:200 and 1:500, respectively in a PBS buffer containing 0.1% Tween 20, 0.1% Triton×100, and 5% normal donkey serum. To control for specificity of staining, an additional subset of slides were reacted with a combined mixture of anti-SW opsin antibody preadsorbed with sc-14363/blocking peptide and normal rabbit IgG. […] The number of SW and M/L cones was manually counted for both slides from each study eye in dual channel fluorescent images. […]

retinal signaling = assay: Full-field ERG (modified ISCEV protocols) in normal animals, scotopic and photopic; format: in vivo, rat
Experimental: FIG. 7 illustrates that zalospirone selectively enhances the scotopic b-wave. Visual function was assessed in vivo in the rat using standard ISCEV protocols. Measurements were made under scotopic (dark-adapted) conditions (“A”-“C”) or photopic conditions (“D”,“E”). In dark adapted animals, ERG recordings elicited by low intensity stimuli (1×10^−4 candela-sec m^2) treatment with 3 mg/kg zalospirone results in a 50% enhancement of the b-wave (“A”). […] Under photopic conditions signals predominately driven by the cone photoreceptors, the photopic b-wave (“D”) or ERG response to 20 Hz flicker (“E”) were unaffected by treatment with zalospirone (3 mg/kg).
FIG. 8 “A” to “C” illustrates that zalospirone selectively enhances the scotopic b-wave.
as §2
In addition to protecting retinal photoreceptors and preserving their function during exposure to an insult, the enhancement or normalization of retinal signaling after injury would be provide significant value in degenerative retinal diseases. The International Society for Clinical Electrophysiology of Vision (ISCEV) provides standards for ascertaining the effects of interventions on retinal signaling. […] Expanding on the observation that scotopic signaling was enhanced in normal animals, it was hypothesized that zalospirone could contribute to the normalization of retinal signaling following injury.

cone photoreceptors [3] = assay: Photopic ERG for S- and M-cone function after blue light-induced injury; format: in vivo, rat; details: pretreatment with 3 mg/kg; 7 days after 10,000 lux blue light
Excerpt: as §3, §2
The protection of cone photoreceptors by zalospirone from light induced injury is exemplified in FIG. 6 below.

[4] = 7 days after 10,000 lux blue light
[5] = 3 mg/kg, dark adapted, 20 candela-sec m^2
[6] = 3 mg/kg, photopic conditions, normal animals

Compound	5-HT1A receptor activity (5-HT1A receptor)	retinal lesion (loss of photoreceptors) measured in the vertical meridian of the eye [1]	protection of structural integrity of the outer nuclear layer [1] [%]	outer nuclear cell count and retinal structure (H&E stained retinas) [1]	protection of retinal signaling (rod photoreceptors) [%]	protection of rod photoreceptors from blue light-induced injury (rod photoreceptors; [4])	scotopic b-wave amplitude after injury compared with baseline (scotopic b-wave)	cones by short wave and medium/long wave opsin immunofluorescent staining (cone photoreceptors [2])	rod-based signaling (scotopic b-wave) (retinal signaling; 3 mg/kg, dark adapted rats, low intensity stimuli ≦10^−3 candelas-sec/m^2)	retinal oscillatory potentials (retinal signaling; [5])	scotopic b-wave at greater intensity stimuli (retinal signaling; [5])	enhancement of the scotopic b-wave (retinal signaling; 3 mg/kg, dark adapted, low intensity stimuli 1×10^−4 candela-sec m^2) [%]	ERG response to 20 Hz flicker (retinal signaling; [6])	photopic b-wave (retinal signaling; [6])	scotopic signaling, modified ISCEV full-field electroretinography (retinal signaling; rat)	protection of the ERG signal (rod photoreceptors; median animal dosed with 3 mg/kg, 7 days after 10,000 lux blue light, 20 candela-sec/m^2 white light stimulus)	photopic b-wave amplitude (medium-wave and short-wave cone driven ERG signals) (cone photoreceptors [3])
Cn1c(=O)cnn(CCCCN2CCN(c3ncccn3)CC2)c1=O [eptapirone, 4-Methyl-2-[4-(4-pyrimidin-2-yl-piperazin-1-yl)-butyl]-2H-[1,2,4]triazine-3,5-dione]	very potent and highly selective 5-HT1A receptor full agonist	almost entirely prevents this lesion from forming	100	maintains outer nuclear cell count but also normalizes retinal structure	80	protects rod photoreceptors from blue light-induced injury											
O=C1[C@@H]2C3C=CC([C@H]4CC[C@@H]34)[C@@H]2C(=O)N1CCCCN1CCN(c2ncccn2)CC1 [zalospirone, (3aα,4α,4aβ,6aβ,7α,7aα)-hexahydro-2-(4-(4-(2-pyrimidinyl)-1-piperazinyl)butyl)-4,7-etheno-1H-cyclobut(f)isoindole-1,3(2H)-dione]	selective 5-HT1A partial agonist	almost entirely prevents this lesion from forming	100	maintains outer nuclear cell count but also normalizes retinal structure	80	protects rod photoreceptors from blue light-induced injury	fully restored the b-wave to its baseline amplitude; also recorded: restored b-wave amplitudes to the baseline levels	virtually identical to that in naïve animals; also recorded: prevents the loss of cones	preferentially augments rod-based signaling	neither the b-wave (“B”) nor the retinal oscillatory potentials (“C”) were affected	neither the b-wave (“B”) nor the retinal oscillatory potentials (“C”) were affected	50	unaffected	unaffected	selectively enhanced scotopic signaling	complete protection	significantly protected; also recorded: largely restored ERG signaling
